US9981988B2, “Polymorphic forms and co-crystals of a c-Met inhibitor” (AMGEN, INC., priority 2014, dated 2018)

Legend:
Format in all cases: physicochemical
[1] = Equilibrium solubility in water and aqueous media; settings: 22.5 °C, thermodynamic from solid
Procedure: In all studies, excess solid of the compound was allowed to equilibrate at a temperature in the range of about 20 to 25° C. for 12-48 hours while stirring.

[2] = Solubility in organic solvents; settings: 20 °C, thermodynamic from solid, 20 to 25° C., at least 12 hours
Procedure: In all studies, excess solid of the compound was allowed to equilibrate for at least 12 hours while stirring.

[3] = Photostability of solid powder (1×ICH dose UV and visible light), HPLC; settings: for degradation: 1×ICH dose, clear glass vials
Procedure: (§1) High performance liquid chromatography (HPLC) analyses were performed on an Agilent 1100 or 1200 series HPLC equipped with a binary pump, diode-array detector, thermostated column compartment, and auto sampler. Separation and elution was achieved using a reverse-phase column and 0.1% triflouroacetic acid/water/acetonitrile mobile phase.
As shown in the table below minimal degradation, 0.4% and 0.2%, was detected in samples in clear glass vials under UV and visible light, respectively.

[4] = Solid state stability under accelerated stability testing conditions, HPLC
Procedure: as §1
Solid samples of the free base monohydrate form of Compound M were placed under accelerated stability testing conditions (25° C./60% RH, 40° C./75% RH and 60° C./ambient RH) for 12 weeks.

[5] = Visible (1200 klux × h), Amber vial
[6] = Visible (1200 klux × h), Clear vial

solubility ([1]; 0.01N HCl, pH 1.9, simulated gastric fluid, 0.01N HCl, pH 1.9, 20 to 25° C., 12-48 hours, read-out: Solubility): 350 µg/mL
solubility ([1]; FaSIF, pH 6.8, fassif, FaSIF, pH 6.8, 20 to 25° C., 12-48 hours, read-out: Solubility): 440 µg/mL
solubility ([1]; PBS, pH 6.9, aqueous buffer, PBS, pH 6.9, 20 to 25° C., 12-48 hours, read-out: Solubility): 180 µg/mL
solubility ([1]; SGF, pH 2.1, aqueous with cosolvent or surfactant or cyclodextrin, SGF (0.25% (w/v) SDS 0.2% (w/v) NaCl in 0.01N HCl), pH 2.1, 20 to 25° C., 12-48 hours, read-out: Solubility): 1440 µg/mL
solubility ([1]; aqueous medium, pH adjusted with HCl, pH 0.73, aqueous buffer, pH 0.73 (adjusted with HCl), read-out: solubility): 9740 µg/mL
solubility ([1]; aqueous medium, pH adjusted with methane sulfonic acid, pH 0.8, aqueous buffer, pH 0.80 (adjusted with methane sulfonic acid), read-out: solubility): 12400 µg/mL
solubility at 40 h ([1]; water, pH 4.7, water, Sample 1, duration 40 h, isolation method 1, pH 4.70, about 20 to 25° C.): 253 µg/mL
solubility ([1]; water, water, water, pH about 4 to about 7, about 20° C. to about 25° C., read-out: aqueous solubility): 260 µg/mL
solubility ([2]; aqueous with cosolvent or surfactant or cyclodextrin, 25% Dimethyl sulfoxide in water, solid form: monohydrate): 590 µg/mL
solubility ([2]; aqueous with cosolvent or surfactant or cyclodextrin, 50% Dimethyl sulfoxide in water, solid form: monohydrate): 1020 µg/mL
solubility ([2]; aqueous with cosolvent or surfactant or cyclodextrin, 75% Dimethyl sulfoxide in water, solid form: monohydrate): 8450 µg/mL
solubility ([2]; organic solvent or mixture, Acetonitrile, solid form: monohydrate (extra peak observed)): 127000 µg/mL
solubility ([2]; organic solvent or mixture, Ethanol, solid form: monohydrate): 29700 µg/mL
solubility ([2]; organic solvent or mixture, Ethyl Acetate, solid form: monohydrate): 20100 µg/mL
solubility ([2]; organic solvent or mixture, Isopropanol, solid form: monohydrate): 8800 µg/mL
solubility ([2]; organic solvent or mixture, Methanol, solid form: monohydrate): 53900 µg/mL
solubility ([2]; organic solvent or mixture, Methyl Ethyl Ketone, solid form: monohydrate + trace acetone solvate): 45800 µg/mL
solubility ([2]; organic solvent or mixture, Toluene, solid form: monohydrate): 1900 µg/mL
chemical degradation ([3]; 1×ICH dose for UV and visible light, amber glass vials): no chemical degradation
Area % (215 nm), peak No MS signal, RRT 0.80 ([3]; UV (200 W × h/m^2), Amber vial): <0.01 Area %
Area % (215 nm), peak m/z 390, RRT 0.84 ([3]; UV (200 W × h/m^2), Amber vial): 0.06 Area %
Area % (215 nm), peak m/z 520 [M + Na]^+, RRT 0.83 ([3]; UV (200 W × h/m^2), Amber vial): <0.01 Area %
Area % (215 nm), peak m/z 581, RRT 0.82 ([3]; UV (200 W × h/m^2), Amber vial): <0.01 Area %
Area % (215 nm), peak m/z 638, RRT 1.16 ([3]; UV (200 W × h/m^2), Amber vial): 0.05 Area %
Area % (215 nm), peak monohydrate, RRT 1.00 ([3]; UV (200 W × h/m^2), Amber vial): 99.89 Area %
Total Impurities, Area % (215 nm) ([3]; UV (200 W × h/m^2), Amber vial): 0.11 Area %
Area % (215 nm), peak No MS signal, RRT 0.80 ([3]; UV (200 W × h/m^2), Clear vial): 0.02 Area %
Area % (215 nm), peak m/z 390, RRT 0.84 ([3]; UV (200 W × h/m^2), Clear vial): 0.19 Area %
Area % (215 nm), peak m/z 520 [M + Na]^+, RRT 0.83 ([3]; UV (200 W × h/m^2), Clear vial): 0.06 Area %
Area % (215 nm), peak m/z 581, RRT 0.82 ([3]; UV (200 W × h/m^2), Clear vial): 0.05 Area %
Area % (215 nm), peak m/z 638, RRT 1.16 ([3]; UV (200 W × h/m^2), Clear vial): 0.04 Area %
Area % (215 nm), peak monohydrate, RRT 1.00 ([3]; UV (200 W × h/m^2), Clear vial): 99.64 Area %
Total Impurities, Area % (215 nm) ([3]; UV (200 W × h/m^2), Clear vial): 0.36 Area %
degradation ([3]; UV light): 0.4%
Area % (215 nm), peak No MS signal, RRT 0.80 [3, 5]: <0.01 Area %
Area % (215 nm), peak m/z 390, RRT 0.84 [3, 5]: 0.05 Area %
Area % (215 nm), peak m/z 520 [M + Na]^+, RRT 0.83 [3, 5]: <0.01 Area %
Area % (215 nm), peak m/z 581, RRT 0.82 [3, 5]: <0.01 Area %
Area % (215 nm), peak m/z 638, RRT 1.16 [3, 5]: 0.05 Area %
Area % (215 nm), peak monohydrate, RRT 1.00 [3, 5]: 99.89 Area %
Total Impurities, Area % (215 nm) [3, 5]: 0.11 Area %
Area % (215 nm), peak No MS signal, RRT 0.80 [3, 6]: <0.01 Area %
Area % (215 nm), peak m/z 390, RRT 0.84 [3, 6]: 0.13 Area %
Area % (215 nm), peak m/z 520 [M + Na]^+, RRT 0.83 [3, 6]: <0.01 Area %
Area % (215 nm), peak m/z 581, RRT 0.82 [3, 6]: <0.01 Area %
Area % (215 nm), peak m/z 638, RRT 1.16 [3, 6]: 0.04 Area %
Area % (215 nm), peak monohydrate, RRT 1.00 [3, 6]: 99.83 Area %
Total Impurities, Area % (215 nm) [3, 6]: 0.17 Area %
degradation ([3]; visible light): 0.2%
Area % (215 nm), peak 2, RRT 1.09 ([4]; Initial): <0.1 Area %
Area % (215 nm), peak 3, RRT 1.25 ([4]; Initial): <0.1 Area %
Area % (215 nm), peak 4, RRT 1.53 ([4]; Initial): <0.1 Area %
Area % (215 nm), peak monohydrate, RRT 1.00 ([4]; Initial): 100.0 Area %
Total Impurities, Area % (215 nm) ([4]; Initial): <0.1 Area %
Area % (215 nm), peak 2, RRT 1.09 ([4]; Week 2, 25/60): 0.27 Area %
Area % (215 nm), peak 3, RRT 1.25 ([4]; Week 2, 25/60): 0.28 Area %
Area % (215 nm), peak 4, RRT 1.53 ([4]; Week 2, 25/60): 0.28 Area %
Area % (215 nm), peak monohydrate, RRT 1.00 ([4]; Week 2, 25/60): 99.18 Area %
Total Impurities, Area % (215 nm) ([4]; Week 2, 25/60): 0.82 Area %
SMILES: COCCOc1cnc2ccn([C@H](C)c3nnc4c(F)cc(-c5cnn(C)c5)cn34)c(=O)c2c1 [free base monohydrate form of Compound M, 6-{(1R)-1-[8-fluoro-6-(1-methyl-1H-pyrazol-4-yl)[1,2,4]triazolo[4,3-a]pyridin-3-yl]ethyl}-3-(2-methoxyethoxy)-1,6-naphthyridin-5(6H)-one]
changes in solid state properties ([4]; 25° C./60% RH, 40° C./75% RH and 60° C./ambient RH for 12 weeks): no changes in solid state properties were observed
